According to ChEMBL document CHEMBL5608259 (J Med Chem, 2024):
pIC50: −log10 of the molar value. The source made the active and inactive calls. The rule behind the calls is not given here.

How the values were obtained:
[1] = biological target: T1, Histone-arginine methyltransferase CARM1 (Homo sapiens) (UniProt Q86X55); experiment: Inhibition of human PRMT4 using histone H3 as substrate and SAM as cofactor at 10 uM by radiometric HotSpot assay relative to control
T1 sequence (whole entry): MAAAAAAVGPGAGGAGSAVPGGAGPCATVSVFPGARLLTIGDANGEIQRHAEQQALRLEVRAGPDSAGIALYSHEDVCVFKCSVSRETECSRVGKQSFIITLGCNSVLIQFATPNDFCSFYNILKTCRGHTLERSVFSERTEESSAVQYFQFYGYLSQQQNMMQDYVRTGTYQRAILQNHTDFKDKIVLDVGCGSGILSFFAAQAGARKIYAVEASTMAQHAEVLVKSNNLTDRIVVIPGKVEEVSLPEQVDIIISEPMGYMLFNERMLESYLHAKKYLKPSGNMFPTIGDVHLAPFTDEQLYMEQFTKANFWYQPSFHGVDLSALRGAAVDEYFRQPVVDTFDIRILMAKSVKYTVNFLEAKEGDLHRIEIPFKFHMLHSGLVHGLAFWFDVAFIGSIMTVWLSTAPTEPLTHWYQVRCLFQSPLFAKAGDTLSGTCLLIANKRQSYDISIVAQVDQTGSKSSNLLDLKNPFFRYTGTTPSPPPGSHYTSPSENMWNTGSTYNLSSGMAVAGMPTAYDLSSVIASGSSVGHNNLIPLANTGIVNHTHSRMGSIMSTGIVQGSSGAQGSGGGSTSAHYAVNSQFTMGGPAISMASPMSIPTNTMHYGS

[2] = biological target: T2, Protein arginine N-methyltransferase 1 (Homo sapiens, UniProt Q99873); experiment: Inhibition of human PRMT1 using H4-21peptide as substrate at 10 uM incubated for 10 mins by fluorescence based analysis relative to control
Target sequence in this assay (Q99873 whole entry, looked up): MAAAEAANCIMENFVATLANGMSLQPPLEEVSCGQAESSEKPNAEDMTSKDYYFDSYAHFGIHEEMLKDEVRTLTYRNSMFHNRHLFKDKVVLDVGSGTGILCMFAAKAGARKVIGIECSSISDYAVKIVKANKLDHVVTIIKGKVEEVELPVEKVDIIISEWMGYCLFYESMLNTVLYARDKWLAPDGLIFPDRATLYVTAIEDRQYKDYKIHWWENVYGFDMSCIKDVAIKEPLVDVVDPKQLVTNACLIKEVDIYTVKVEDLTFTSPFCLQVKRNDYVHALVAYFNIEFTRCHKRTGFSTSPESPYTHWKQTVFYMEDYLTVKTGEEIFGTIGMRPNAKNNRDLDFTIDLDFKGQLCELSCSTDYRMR

[3] = biological target: T3, Protein arginine N-methyltransferase 6 (Homo sapiens, UniProt Q96LA8); experiment: Inhibition of human PRMT6 using GST-GAR as substrate and SAM as cofactor at 10 uM by radiometric HotSpot assay relative to control
Target sequence in this assay (Q96LA8 whole entry, looked up): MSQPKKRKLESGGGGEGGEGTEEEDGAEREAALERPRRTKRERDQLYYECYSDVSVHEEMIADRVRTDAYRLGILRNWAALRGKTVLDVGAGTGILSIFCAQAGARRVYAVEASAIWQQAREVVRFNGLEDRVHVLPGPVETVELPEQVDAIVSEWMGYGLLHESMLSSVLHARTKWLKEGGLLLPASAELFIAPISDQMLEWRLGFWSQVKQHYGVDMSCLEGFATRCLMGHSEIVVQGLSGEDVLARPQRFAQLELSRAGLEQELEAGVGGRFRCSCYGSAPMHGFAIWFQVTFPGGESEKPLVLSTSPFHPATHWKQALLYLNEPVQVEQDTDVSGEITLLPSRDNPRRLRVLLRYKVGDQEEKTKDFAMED

[4] = biological target: T4, Protein arginine N-methyltransferase 8 (Homo sapiens, UniProt Q9NR22); experiment: Inhibition of human PRMT8 using Histone H4 as substrate and SAM as cofactor at 10 uM by radiometric HotSpot assay relative to control
Target sequence in this assay (Q9NR22 2-394 limits assumed): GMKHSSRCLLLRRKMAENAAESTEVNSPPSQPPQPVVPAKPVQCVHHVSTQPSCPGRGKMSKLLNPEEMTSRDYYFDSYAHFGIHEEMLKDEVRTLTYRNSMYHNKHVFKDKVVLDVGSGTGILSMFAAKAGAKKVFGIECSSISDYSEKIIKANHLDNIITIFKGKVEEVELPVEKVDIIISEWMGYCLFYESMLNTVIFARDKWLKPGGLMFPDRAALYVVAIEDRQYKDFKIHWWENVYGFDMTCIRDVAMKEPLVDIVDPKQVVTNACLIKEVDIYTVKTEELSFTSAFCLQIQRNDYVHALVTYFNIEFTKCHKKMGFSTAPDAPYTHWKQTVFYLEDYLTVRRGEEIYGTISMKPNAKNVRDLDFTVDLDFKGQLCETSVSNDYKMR

[5] = biological target: T5, Protein arginine N-methyltransferase 3 (Homo sapiens, UniProt O60678); experiment: Inhibition of human PRMT3 using H4-21peptide as substrate at 10 uM incubated for 10 mins by fluorescence based analysis relative to control
Target sequence in this assay (O60678 2-531 limits assumed): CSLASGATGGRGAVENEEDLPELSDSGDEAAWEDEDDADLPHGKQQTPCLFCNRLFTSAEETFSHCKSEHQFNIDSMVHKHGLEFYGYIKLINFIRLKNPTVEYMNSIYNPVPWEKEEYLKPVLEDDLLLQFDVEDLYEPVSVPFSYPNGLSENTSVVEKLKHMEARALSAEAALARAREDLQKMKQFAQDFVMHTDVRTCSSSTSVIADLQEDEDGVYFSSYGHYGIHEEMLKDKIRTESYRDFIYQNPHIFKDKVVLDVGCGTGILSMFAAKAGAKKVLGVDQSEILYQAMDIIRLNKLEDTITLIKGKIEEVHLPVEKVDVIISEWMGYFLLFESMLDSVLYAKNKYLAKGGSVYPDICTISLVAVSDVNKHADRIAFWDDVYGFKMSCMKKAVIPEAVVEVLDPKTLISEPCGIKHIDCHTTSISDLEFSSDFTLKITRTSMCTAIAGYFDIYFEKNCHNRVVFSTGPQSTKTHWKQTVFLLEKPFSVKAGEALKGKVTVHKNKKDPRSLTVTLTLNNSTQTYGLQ

MDA-MB-231 = experiment: Inhibition of colony formation in human MDA-MB-231 cells at 10 uM incubated for 2 weeks by crystal violet staining based analysis relative to control; format: functional; settings: MDA-MB-231, 336 h
[6] = biological target: T6, Histone-arginine methyltransferase CARM1 (Homo sapiens, UniProt Q86X55); experiment: Inhibition of human PRMT4 using histone H3 as substrate and SAM as cofactor by radiometric HotSpot assay
T6 sequence (Q86X55 whole entry): T1 sequence (whole entry)

[7] = Permeability of the compound by PAMPA method; format: ADME; settings: read-out: permeability
[8] = biological target: PRMT5/MEP50 complex (Homo sapiens) (UniProt O14744+Q9BQA1); experiment: Inhibition of human PRMT5/MEP50 using Histone H2 as substrate and SAM as cofactor at 10 uM by radiometric HotSpot assay relative to control; format: protein-complex assay
[9] = biological target: T5, Protein arginine N-methyltransferase 3; experiment: Inhibition of human PRMT3 using Histone H3 as substrate and SAM as cofactor by radiometric HotSpot assay
Target sequence in this assay (O60678 whole entry): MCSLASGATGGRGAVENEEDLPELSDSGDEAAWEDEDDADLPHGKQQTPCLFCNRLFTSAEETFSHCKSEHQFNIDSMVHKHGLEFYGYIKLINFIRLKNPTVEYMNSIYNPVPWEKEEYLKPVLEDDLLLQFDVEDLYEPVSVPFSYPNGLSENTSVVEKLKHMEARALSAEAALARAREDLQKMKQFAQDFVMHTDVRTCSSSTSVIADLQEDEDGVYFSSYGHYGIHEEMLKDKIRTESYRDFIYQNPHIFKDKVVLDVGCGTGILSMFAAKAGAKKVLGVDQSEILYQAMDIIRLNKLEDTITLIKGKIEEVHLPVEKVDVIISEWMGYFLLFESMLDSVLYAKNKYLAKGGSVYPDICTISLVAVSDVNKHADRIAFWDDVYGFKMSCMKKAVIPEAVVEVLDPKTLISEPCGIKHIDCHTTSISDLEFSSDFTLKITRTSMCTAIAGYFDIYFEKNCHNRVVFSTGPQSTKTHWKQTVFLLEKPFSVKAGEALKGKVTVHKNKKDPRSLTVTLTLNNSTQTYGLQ

[10] = biological target: T7, Protein arginine N-methyltransferase 7 (Homo sapiens, UniProt Q9NVM4); experiment: Inhibition of human PRMT7 using GST-GAR as substrate and SAM as cofactor by radiometric HotSpot assay
T7 sequence (Q9NVM4 whole entry): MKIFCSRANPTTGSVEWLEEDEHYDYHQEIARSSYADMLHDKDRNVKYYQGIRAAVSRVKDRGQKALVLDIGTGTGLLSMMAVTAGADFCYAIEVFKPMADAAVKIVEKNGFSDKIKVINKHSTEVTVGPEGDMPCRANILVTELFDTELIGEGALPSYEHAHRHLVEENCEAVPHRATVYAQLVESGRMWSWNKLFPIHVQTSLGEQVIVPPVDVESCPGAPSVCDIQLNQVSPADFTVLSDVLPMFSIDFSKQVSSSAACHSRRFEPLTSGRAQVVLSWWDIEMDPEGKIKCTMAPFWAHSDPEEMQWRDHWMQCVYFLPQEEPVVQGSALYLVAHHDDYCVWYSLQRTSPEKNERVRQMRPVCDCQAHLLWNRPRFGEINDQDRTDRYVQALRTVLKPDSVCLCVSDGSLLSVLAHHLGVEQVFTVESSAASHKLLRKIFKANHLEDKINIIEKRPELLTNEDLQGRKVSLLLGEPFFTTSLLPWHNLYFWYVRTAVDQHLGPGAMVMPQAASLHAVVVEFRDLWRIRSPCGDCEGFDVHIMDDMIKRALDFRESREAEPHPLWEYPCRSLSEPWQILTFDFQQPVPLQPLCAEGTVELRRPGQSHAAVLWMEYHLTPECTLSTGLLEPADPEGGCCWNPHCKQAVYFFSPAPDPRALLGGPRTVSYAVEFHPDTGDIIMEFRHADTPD

PRMT5/MEP50 complex = PRMT5/MEP50 complex (Homo sapiens, UniProt O14744); experiment: Inhibition of human PRMT5/MEP50 using Histone H2 as substrate and SAM as cofactor by radiometric HotSpot assay; format: protein-complex assay
[11] = biological target: T2, Protein arginine N-methyltransferase 1; experiment: Inhibition of human PRMT1 using Histone H4 as substrate and SAM as cofactor by radiometric HotSpot assay
Target sequence in this assay (Q99873 whole entry): as the sequence (Q99873 whole entry, looked up) above

[12] = biological target: T4, Protein arginine N-methyltransferase 8; experiment: Inhibition of human PRMT8 using Histone H4 as substrate and SAM as cofactor by radiometric HotSpot assay
Target sequence in this assay (Q9NR22 whole entry): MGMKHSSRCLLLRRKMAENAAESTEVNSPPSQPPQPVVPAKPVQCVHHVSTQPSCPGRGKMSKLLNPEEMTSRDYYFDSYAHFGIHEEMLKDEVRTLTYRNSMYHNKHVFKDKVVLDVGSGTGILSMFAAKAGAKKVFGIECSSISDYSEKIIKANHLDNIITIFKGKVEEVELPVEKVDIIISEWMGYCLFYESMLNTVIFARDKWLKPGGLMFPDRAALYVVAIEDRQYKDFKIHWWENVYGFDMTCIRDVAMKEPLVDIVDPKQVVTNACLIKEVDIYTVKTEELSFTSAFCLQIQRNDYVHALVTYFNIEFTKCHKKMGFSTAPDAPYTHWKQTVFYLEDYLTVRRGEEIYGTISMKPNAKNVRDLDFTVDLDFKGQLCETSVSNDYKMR

[13] = biological target: T3, Protein arginine N-methyltransferase 6; experiment: Inhibition of PRMT6 (unknown origin)
Target sequence in this assay (Q96LA8 whole entry): as the sequence (Q96LA8 whole entry, looked up) above

Chain of PRMT5/MEP50 complex (O14744 whole entry): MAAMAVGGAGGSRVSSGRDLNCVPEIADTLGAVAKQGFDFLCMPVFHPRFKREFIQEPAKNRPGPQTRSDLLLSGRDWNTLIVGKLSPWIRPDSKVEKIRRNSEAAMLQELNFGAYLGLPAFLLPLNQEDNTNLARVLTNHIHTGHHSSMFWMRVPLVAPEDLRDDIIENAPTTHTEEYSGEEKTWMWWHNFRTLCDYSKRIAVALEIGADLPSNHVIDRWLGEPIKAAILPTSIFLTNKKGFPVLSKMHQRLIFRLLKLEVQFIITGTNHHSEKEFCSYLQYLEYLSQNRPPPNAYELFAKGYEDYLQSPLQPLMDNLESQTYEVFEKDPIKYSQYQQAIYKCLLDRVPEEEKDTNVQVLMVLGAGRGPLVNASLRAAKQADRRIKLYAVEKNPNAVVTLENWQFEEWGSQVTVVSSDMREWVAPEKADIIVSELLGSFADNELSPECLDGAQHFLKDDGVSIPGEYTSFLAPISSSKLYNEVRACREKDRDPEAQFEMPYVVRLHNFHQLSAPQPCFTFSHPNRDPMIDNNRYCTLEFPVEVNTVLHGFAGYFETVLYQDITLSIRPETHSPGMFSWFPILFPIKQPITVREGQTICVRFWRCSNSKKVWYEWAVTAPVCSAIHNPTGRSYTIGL
Chain of PRMT5/MEP50 complex (Q9BQA1 whole entry, further chain): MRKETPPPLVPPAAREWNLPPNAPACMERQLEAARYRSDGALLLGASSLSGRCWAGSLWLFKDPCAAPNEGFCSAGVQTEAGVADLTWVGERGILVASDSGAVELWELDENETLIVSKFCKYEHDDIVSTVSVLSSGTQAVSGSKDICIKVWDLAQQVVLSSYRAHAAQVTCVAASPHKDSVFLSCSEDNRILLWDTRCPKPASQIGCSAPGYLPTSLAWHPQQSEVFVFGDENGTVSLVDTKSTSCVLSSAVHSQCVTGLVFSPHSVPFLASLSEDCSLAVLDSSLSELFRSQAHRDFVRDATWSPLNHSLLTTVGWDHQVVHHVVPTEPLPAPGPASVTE

| SMILES | inhibition [1] | inhibition [2] | inhibition [3] | inhibition [4] [%] | inhibition [5] [%] | further results |
| --- | --- | --- | --- | --- | --- | --- |
| N=C(NCCCSC[C@H]1O[C@@H](n2cnc3c(NCCCc4ccccc4)ncnc32)[C@H](O)[C@@H]1O)NC1CC1 | Active | Active | Active | 70 | < 30 |  |
| CNC[C@@H](O)COc1ccc(Cl)c(-c2nc(-c3c(C)noc3C)c(C)c(N3CC4(CCN(C(=O)OC)CC4)C3)n2)c1 |  |  |  |  |  | inhibition at 10 µM (MDA-MB-231): 30% |
| Nc1cccc(-c2ccc(CNC(=O)NCCSC[C@H]3O[C@@H](n4cnc5c(N)ncnc54)[C@H](O)[C@@H]3O)cc2)c1 | 27% | < 50% | 70% | < 30 | 3 |  |
| Nc1ccc(-c2ccc(CNC(=O)NCCSC[C@H]3O[C@@H](n4cnc5c(N)ncnc54)[C@H](O)[C@@H]3O)cc2)cc1 | 27% | < 50% | 70% | < 30 | 3 |  |
| Nc1ncnc2c1ncn2[C@@H]1O[C@H](CSCCCNCc2cccc(-c3cncnc3)c2)[C@@H](O)[C@H]1O | > 90% |  | 50% | > 50 | < 30 | pIC50 [6]: 7.31 |
| CNCCN1CCC(c2cc(CN(C)C(=O)c3cccc(Oc4ccccc4)c3)ccn2)CC1 |  |  |  |  |  | inhibition at 10 µM (MDA-MB-231): 30% |
| N=C(NCCCSC[C@H]1O[C@@H](n2cnc3c(NCCCc4ccccc4)ncnc32)[C@H](O)[C@@H]1O)NCC1CCC1 | Active | Active | Active | 70 | < 30 |  |
| Nc1ncnc2c1ncn2[C@@H]1O[C@H](CSCCNCc2cccc(Br)c2)[C@@H](O)[C@H]1O |  |  | 50% | > 50 |  | Papp [7]: 0.3 ×10⁻⁶ cm/s; inhibition [8]: 75% |
| CCCCNC(=N)NCCCSC[C@H]1O[C@@H](n2cnc3c(NCCCc4ccccc4)ncnc32)[C@H](O)[C@@H]1O | Active | Active | Active | 70 | < 30 |  |
| Nc1ncnc2c1ncn2[C@@H]1O[C@H](CSCCNC(=O)NCc2ccccc2)[C@@H](O)[C@H]1O | > 90% | < 50% | 70% | < 30 | > 50 |  |
| Nc1ncnc2c1ncn2[C@@H]1O[C@H](CSCCNCc2cccc(-c3ccoc3)c2)[C@@H](O)[C@H]1O | > 90% |  | 50% | > 50 | < 30 | pIC50 [6]: 8.92 |
| Nc1ncnc2c1ncn2[C@@H]1O[C@H](CSCCNC(=O)NCc2ccc(-c3cccc(O)c3)cc2)[C@@H](O)[C@H]1O | 27% | < 50% | 70% | < 30 | 3 |  |
| N=C(N)NCCC[C@H](N)C(=O)NCC(=O)N[C@@H](CCCN)C(=O)N[C@@H](CCCNC(=N)NCCCSC[C@H]1O[C@@H](n2cnc3c(N)ncnc32)[C@H](O)[C@@H]1O)C(=O)O |  |  |  |  |  | pIC50 [9]: < 5.00; pIC50 [6]: 8.55; pIC50 [10]: 5.08; pIC50 (PRMT5/MEP50 complex): 9.38; pIC50 [11]: 5.23; pIC50 [12]: < 5.00 |

Second part, led by results:

| inhibition [1] | inhibition [2] | inhibition [3] | inhibition [4] [%] | inhibition [5] [%] | SMILES | further results |
| --- | --- | --- | --- | --- | --- | --- |
| Active | Active | Active | 70 | < 30 | N=C(NCCCSC[C@H]1O[C@@H](n2cnc3c(NCCCc4ccccc4)ncnc32)[C@H](O)[C@@H]1O)NCCCc1ccccc1 |  |
| Active | Active | Active | 70 | < 30 | N=C(NCCCSC[C@H]1O[C@@H](n2cnc3c(NCCCc4ccccc4)ncnc32)[C@H](O)[C@@H]1O)NCCc1ccccc1 |  |
| Active | Active | Active | 70 | < 30 | N=C(NCCCO)NCCCSC[C@H]1O[C@@H](n2cnc3c(NCCCc4ccccc4)ncnc32)[C@H](O)[C@@H]1O |  |
| Active | Active | Active | 70 | < 30 | N=C(NCCCSC[C@H]1O[C@@H](n2cnc3c(NCCCc4ccccc4)ncnc32)[C@H](O)[C@@H]1O)NCc1ccccc1 |  |
| Active | Active | Active | 70 | < 30 | N=C(NCCCN)NCCCSC[C@H]1O[C@@H](n2cnc3c(NCCCc4ccccc4)ncnc32)[C@H](O)[C@@H]1O |  |
| Active | Active | Active | 70 | < 30 | N=C(NCCCSC[C@H]1O[C@@H](n2cnc3c(NCCCc4ccccc4)ncnc32)[C@H](O)[C@@H]1O)Nc1ccccc1 |  |
| Active | Active | Active | 70 | < 30 | N=C(NCCCSC[C@H]1O[C@@H](n2cnc3c(NCCCc4ccccc4)ncnc32)[C@H](O)[C@@H]1O)NCC1CC1 |  |
| Active | Active | Active | 70 | < 30 | N=C(NCCCSC[C@H]1O[C@@H](n2cnc3c(NCCCc4ccccc4)ncnc32)[C@H](O)[C@@H]1O)NC1CCC1 |  |
| 27% | < 50% | 70% | < 30 | 3 | Nc1ncnc2c1ncn2[C@@H]1O[C@H](CSCCCNC(=O)NCc2ccc3c(c2)OCO3)[C@@H](O)[C@H]1O |  |
| > 90% |  | 50% | > 50 | < 30 | Nc1ncnc2c1ncn2[C@@H]1O[C@H](CSCCNCc2cccc(-c3cncnc3)c2)[C@@H](O)[C@H]1O | pIC50 [6]: 8.03 |
| Active | Active | Active | 70 | < 30 | N=C(NCCCSC[C@H]1O[C@@H](n2cnc3c(NCCCc4ccccc4)ncnc32)[C@H](O)[C@@H]1O)NC1CCCC1 |  |
|  | > 50% | > 90% | > 95 |  | N=C(NCCSC[C@H]1O[C@@H](n2cnc3c(N)ncnc32)[C@H](O)[C@@H]1O)Nc1ccccc1 | pIC50 [9]: 6.49; pIC50 [10]: 5.62; pIC50 (PRMT5/MEP50 complex): 6.45; pIC50 [11]: < 5.00; pIC50 [12]: < 5.00; pIC50 [13]: < 5.00 |
| 27% | < 50% | 70% | < 30 | 3 | Nc1ncnc2c1ncn2[C@@H]1O[C@H](CSCCNC(=O)NCc2ccc(-c3ccc(O)cc3)cc2)[C@@H](O)[C@H]1O |  |
